Inhibition and IC50 data for 35 compounds are collected here from ChEMBL document CHEMBL3997765 (Medchemcomm, 2016).

The target of assay [1] is T1, Mitogen-activated protein kinase 14 (Homo sapiens, UniProt Q16539). As to the kind of experiment: Inhibition of full length recombinant human GST-tagged p38alpha expressed in Escherichia coli at 10 uM using Ser/Thr04 peptide as substrate in presence of inactive MAPKAPK2 after 1 hr by FRET assay relative to control.
Assay [2] has as its target T1, Mitogen-activated protein kinase 14. As to the kind of experiment: Inhibition of full length recombinant human GST-tagged p38alpha expressed in Escherichia coli by Z'-Lyte assay.
The target is the same in assay [3]. The experiment in a line: Inhibition of p38alpha phosphorylation in human MM1S cells after 3 hrs by western blot analysis. The class given is cell-based. For orientation: Immunoblotting shows a protein as a band on a membrane.
Assay [4] has the same target. The experiment in a line: Inhibition of p38alpha phosphorylation in human U266 cells at 10 uM after 3 hrs by western blot analysis. The format is cell-based.

The structures appear in SMILES notation. The source made the active and inactive calls. No cut-off for these calls is given here.

T1 sequence (Q16539 whole entry): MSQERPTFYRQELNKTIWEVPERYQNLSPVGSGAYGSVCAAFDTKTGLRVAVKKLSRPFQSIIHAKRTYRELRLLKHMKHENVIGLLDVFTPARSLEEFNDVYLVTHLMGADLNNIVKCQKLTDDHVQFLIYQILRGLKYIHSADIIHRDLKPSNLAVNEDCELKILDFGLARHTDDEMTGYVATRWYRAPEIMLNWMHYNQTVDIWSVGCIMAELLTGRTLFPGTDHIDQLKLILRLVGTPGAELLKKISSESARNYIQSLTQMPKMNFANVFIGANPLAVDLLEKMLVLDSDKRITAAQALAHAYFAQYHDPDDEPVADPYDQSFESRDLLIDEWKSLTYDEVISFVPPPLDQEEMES

In general, inhibition refers to the drop in the measured response relative to a control, in per cent. Regarding `Cc1ccc(Sc2ncnc3c2N=C(c2ccccc2)c2cc(C)ccc2S3)cc1`, the inhibition in assay [1] came to 12%.

For the compound `O=[N+]([O-])c1ccccc1C1=Nc2c(Sc3ccccc3)ncnc2Sc2ccccc21`, the inhibition in assay [1] is 63%.

As for `Cc1ccc2c(c1)C(Cc1ccccc1)=Nc1c(NC3CCCCC3)ncnc1S2`, the inhibition in assay [1] turned out to be 29%.

`Cc1ccc(C2=Nc3c(NCc4ccccc4)ncnc3Sc3ccc(Cl)cc32)cc1`: the inhibition in assay [1] is -2%.

Consider `Cc1ccc(C2=Nc3c(Sc4ccc(Cl)cc4)ncnc3Sc3ccc(Cl)cc32)cc1`, for which the inhibition in assay [1] turned out to be 4%.

As for `Cc1ccc(C2=Nc3c(ncnc3[S+]([O-])c3ccc(C)cc3)Sc3ccc(C)cc32)cc1` (stereo unspecified), in assay [1], the inhibition worked out at 88%.

On to `Clc1ccc(Sc2ncnc3c2N=C(c2ccccc2)c2cc(Cl)ccc2S3)cc1`, for which, in assay [1], the inhibition came to 3%.

As for `COc1ccc(Sc2ncnc3c2N=C(Cc2ccccc2)c2cc(OC)ccc2S3)cc1`, the inhibition in assay [1] worked out at 10%.

With `Cc1ccc(Sc2ncnc3c2N=C(Cc2ccccc2)c2cc(C)ccc2S3)cc1`, the inhibition in assay [1] is 1%.

The IC50 is the concentration that gives 50% inhibition. On to `CCCC1=Nc2c(ncnc2[S+]([O-])c2ccccc2)Sc2ccccc21` (stereo unspecified), for which the inhibition in assay [1] was determined as 73%. In addition, the IC50 in assay [2] was determined as 0.969 µM.

Consider `Clc1ccc(Sc2ncnc3c2N=C(Cc2ccccc2)c2cc(Cl)ccc2S3)cc1`, for which, in assay [1], the inhibition was found to be 0%.

`Cc1ccc2c(c1)C(c1ccc(F)cc1)=Nc1c(N)ncnc1S2`: in assay [1], the inhibition turned out to be 4%.

Take `CCCC1=Nc2c(NCc3ccccc3)ncnc2Sc2ccccc21`: the inhibition in assay [1] was found to be 5%.

For `c1ccc(C2=Nc3c(ncnc3N3CCCC3)Sc3ccccc32)cc1`, the inhibition in assay [1] is -4%.

Take `CCCC1=Nc2c(Sc3ccc(C)cc3)ncnc2Sc2ccc(C)cc21`: in assay [1], the inhibition turned out to be 16%.

For `CCCCNc1ncnc2c1N=C(c1ccccc1)c1cc(Cl)ccc1S2`, the inhibition in assay [1] was -6%.

`Cc1ccc([S+]([O-])c2ncnc3c2N=C(c2cccnc2)c2cc(C)ccc2S3)cc1` (stereo unspecified): in assay [1], the inhibition is 100%.

Regarding `c1ccc(CC2=Nc3c(Sc4ccccc4)ncnc3Sc3ccccc32)cc1`, in assay [1], the inhibition turned out to be 9%.

`Cc1ccc(C2=Nc3c(ncnc3S(=O)(=O)c3ccc(C)cc3)[S+]([O-])c3ccc(C)cc32)cc1` (stereo unspecified): the inhibition result was “Dose-dependent effect” in assay [3] and 100% in assay [1]. The inhibition entry in assay [4] was “Active”. For the same compound, the IC50 in assay [2] is 0.0427 µM.

As for `Cc1ccc2c(c1)C(Cc1ccccc1)=Nc1c(NCc3ccccc3)ncnc1S2`, the inhibition in assay [1] worked out at 19%.

For the compound `Cc1ccc(Sc2ncnc3c2N=C(c2ccc(F)cc2)c2cc(C)ccc2S3)cc1`, the inhibition in assay [1] was 0%.

Consider `Fc1ccc(C2=Nc3c(Sc4ccccc4)ncnc3Sc3ccccc32)cc1`, for which, in assay [1], the inhibition is 7%.

Take `c1ccc(Sc2ncnc3c2N=C(c2cccnc2)c2ccccc2S3)cc1`: the inhibition in assay [1] was 98%. Moreover, in assay [2], the IC50 stood at 1.25 µM.

Turning to `c1ccc(Sc2ncnc3c2N=C(c2ccccc2)c2ccccc2S3)cc1`, the inhibition in assay [1] came to 18%.

As for `COc1ccc(Sc2ncnc3c2N=C(c2ccc(C)cc2)c2cc(OC)ccc2S3)cc1`, the inhibition in assay [1] turned out to be 30%.

For `[O-][S+](c1ccc(Cl)cc1)c1ncnc2c1N=C(c1ccccc1)c1cc(Cl)ccc1S2` (stereo unspecified), the inhibition in assay [1] worked out at 98%. Moreover, the IC50 in assay [2] was 0.855 µM.

With `Cc1ccc2c(c1)C(c1cccnc1)=Nc1c(NCc3ccccc3)ncnc1S2`, the inhibition in assay [1] came out at 18%.

In the case of `Cc1ccc([S+]([O-])c2ncnc3c2N=C(c2ccccc2)c2cc(C)ccc2S3)cc1` (stereo unspecified), the inhibition in assay [1] was determined as 95%.

With `Cc1ccc(C2=Nc3c(ncnc3[S+]([O-])c3ccc(Cl)cc3)Sc3ccc(Cl)cc32)cc1` (stereo unspecified), the inhibition in assay [1] came out at 99%.

Regarding `Cc1ccc2c(c1)C(c1ccc(F)cc1)=Nc1c(NCCO)ncnc1S2`, the inhibition in assay [1] is -3%.

In the case of `Cc1ccc(Sc2ncnc3c2N=C(c2cccnc2)c2cc(C)ccc2S3)cc1`, the inhibition in assay [1] came out at 4%.

Turning to `Cc1ccc(C2=Nc3c(NC4CCCCC4)ncnc3Sc3ccc(Cl)cc32)cc1`, the inhibition in assay [1] stood at 11%.

Turning to `CCCCNc1ncnc2c1N=C(c1ccccc1)c1cc(C)ccc1S2`, the inhibition in assay [1] was -4%.

Consider `Cc1ccc(S(=O)(=O)c2ncnc3c2N=C(c2ccccc2)c2cc(C)ccc2[S+]3[O-])cc1` (stereo unspecified), for which the inhibition in assay [1] came to 100%.

`CCCC1=Nc2c(Sc3ccccc3)ncnc2Sc2ccccc21`: in assay [1], the inhibition is 11%.
